From ChEMBL document CHEMBL5385853, “Design, synthesis, and biological evaluation of novel quinoline derivatives as small molecule mutant EGFR inhibitors targeting resistance in NSCLC: In vitro screening and ADME predictions” (Eur J Med Chem, 2023) come the findings set out here.

One data set has as its system NCI-H1975. Kind of data set: Anticancer activity against human NCI-H1975 cells harboring EGFR L858R/T790M mutant assessed as reduction in cell viability measured after 72 hrs by MTT assay. Particulars: NCI-H1975, 72 h. The data set is classed as functional, cell-based.
In data set [1] the test system is A549. Kind of data set: Anticancer activity against human A549 cells overexpressing wild type EGFR assessed as reduction in cell viability measured after 72 hrs by MTT assay. The following applies: A549, 72 h. The data set is classed as functional, cell-based. (In general: Tetrazolium dyes change colour on reduction, which living cells bring about.)
In data set [2] the test system is A549. Put plainly: Anticancer activity against human A549 cells assessed as reduction in cell viability measured after 72 hrs by MTT assay. Type of data set: functional, cell-based. Particulars: A549, 72 h.
The subject of a further data set is HCC827. Put plainly: Anticancer activity against human HCC827 cells harboring EGFR E746_A750 del mutant assessed as reduction in cell viability measured after 72 hrs by MTT assay. The data set is classed as functional, cell-based. Particulars: HCC827, 72 h.
Data set [3] concerns the target Epidermal growth factor receptor (Homo sapiens, UniProt P00533). Put plainly: Inhibition of EGFR (unknown origin).
Data set [4] has as its target Epidermal growth factor receptor (Homo sapiens, UniProt P00533, L858R/T790M). Put plainly: Inhibition of EGFR L858R/T790M mutant (unknown origin) using poly (Glu,Tyr) as substrate incubated for 40 mins in presence of ATP by Kinase-Glo luminescent analysis.
Data set [5] deals with NSCLC. Put plainly: Induction of apoptosis in human NSCLC assessed as early apoptotic cells at IC50 measured after 24 to 48 hrs by AnnexinV-FITC/PI staining based flow cytometry (reference value: 2.1%). The data set is classed as functional. Particulars: time 24-48 hrs. For orientation: A flow cytometer gives signals particle by particle.
Data set [6] can be described thus: Cytotoxicity against human BEAS-2B cells assessed as reduction in cell viability measured after 72 hrs by MTT assay. The data set is classed as toxicity, cell-based.
Data set [7] concerns Epidermal growth factor receptor (Homo sapiens), P00533 [UNDEFINED MUTATION]. Put plainly: Inhibition of EGFR E746_A750 del mutant in human HCC827 cells assessed as inhibition of Akt phosphorylation at 0.01 to 1 uM by western blot analysis. The data set is classed as cell-based. The following applies: dose 0.01-1 µM. In general terms: In western blotting, separated proteins are transferred to a membrane and probed.
Chain of Epidermal growth factor receptor (Homo sapiens), P00533 [UNDEFINED MUTATION] (P00533 whole entry, looked up, stated change not applied): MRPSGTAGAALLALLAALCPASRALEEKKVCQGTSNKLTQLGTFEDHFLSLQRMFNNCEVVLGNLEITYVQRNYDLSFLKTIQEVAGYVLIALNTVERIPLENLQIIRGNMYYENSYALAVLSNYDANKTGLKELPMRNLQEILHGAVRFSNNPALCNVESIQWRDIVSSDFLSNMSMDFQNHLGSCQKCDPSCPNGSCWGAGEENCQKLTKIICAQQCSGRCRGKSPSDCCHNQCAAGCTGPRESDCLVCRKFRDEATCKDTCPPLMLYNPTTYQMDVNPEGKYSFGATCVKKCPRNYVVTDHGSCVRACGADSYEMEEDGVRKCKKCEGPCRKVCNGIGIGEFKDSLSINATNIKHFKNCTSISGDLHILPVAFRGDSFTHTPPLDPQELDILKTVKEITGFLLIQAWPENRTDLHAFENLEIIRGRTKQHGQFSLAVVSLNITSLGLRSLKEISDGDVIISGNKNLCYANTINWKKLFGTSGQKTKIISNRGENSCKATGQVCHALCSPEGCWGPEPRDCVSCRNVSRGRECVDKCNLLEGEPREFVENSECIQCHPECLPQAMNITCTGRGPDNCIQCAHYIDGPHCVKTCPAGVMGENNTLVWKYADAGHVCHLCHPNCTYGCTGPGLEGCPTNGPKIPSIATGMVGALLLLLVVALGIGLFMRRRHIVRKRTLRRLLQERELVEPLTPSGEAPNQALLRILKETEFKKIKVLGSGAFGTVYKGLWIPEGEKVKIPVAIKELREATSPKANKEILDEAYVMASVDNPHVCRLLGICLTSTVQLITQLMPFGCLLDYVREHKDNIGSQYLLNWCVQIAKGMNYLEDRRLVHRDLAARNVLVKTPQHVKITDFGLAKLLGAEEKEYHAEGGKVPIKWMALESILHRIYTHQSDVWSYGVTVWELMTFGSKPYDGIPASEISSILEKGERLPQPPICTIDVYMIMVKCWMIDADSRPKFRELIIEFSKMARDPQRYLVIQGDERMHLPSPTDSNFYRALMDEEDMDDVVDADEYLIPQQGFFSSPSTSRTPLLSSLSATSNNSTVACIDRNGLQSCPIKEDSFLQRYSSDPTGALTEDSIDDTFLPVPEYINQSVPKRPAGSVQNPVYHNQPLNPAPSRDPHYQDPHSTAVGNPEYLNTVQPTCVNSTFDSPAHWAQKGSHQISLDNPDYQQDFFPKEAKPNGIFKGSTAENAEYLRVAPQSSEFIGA

In data set [8] the test system is NSCLC. Put plainly: Induction of apoptosis in human NSCLC assessed as late apoptotic cells at IC50 measured after 24 to 48 hrs by AnnexinV-FITC/PI staining based flow cytometry (reference value: 1.1%). Type of data set: functional. The following applies: time 24-48 hrs.

SMILES strings stand for the structures. Activity calls are given as the source filed them. The rule behind the calls is not given here.

One may read the IC50 as the midpoint of a concentration-inhibition curve.

Chain of Epidermal growth factor receptor (Homo sapiens, UniProt P00533, L858R/T790M) (P00533 25-1210 T790M/L858R limits assumed): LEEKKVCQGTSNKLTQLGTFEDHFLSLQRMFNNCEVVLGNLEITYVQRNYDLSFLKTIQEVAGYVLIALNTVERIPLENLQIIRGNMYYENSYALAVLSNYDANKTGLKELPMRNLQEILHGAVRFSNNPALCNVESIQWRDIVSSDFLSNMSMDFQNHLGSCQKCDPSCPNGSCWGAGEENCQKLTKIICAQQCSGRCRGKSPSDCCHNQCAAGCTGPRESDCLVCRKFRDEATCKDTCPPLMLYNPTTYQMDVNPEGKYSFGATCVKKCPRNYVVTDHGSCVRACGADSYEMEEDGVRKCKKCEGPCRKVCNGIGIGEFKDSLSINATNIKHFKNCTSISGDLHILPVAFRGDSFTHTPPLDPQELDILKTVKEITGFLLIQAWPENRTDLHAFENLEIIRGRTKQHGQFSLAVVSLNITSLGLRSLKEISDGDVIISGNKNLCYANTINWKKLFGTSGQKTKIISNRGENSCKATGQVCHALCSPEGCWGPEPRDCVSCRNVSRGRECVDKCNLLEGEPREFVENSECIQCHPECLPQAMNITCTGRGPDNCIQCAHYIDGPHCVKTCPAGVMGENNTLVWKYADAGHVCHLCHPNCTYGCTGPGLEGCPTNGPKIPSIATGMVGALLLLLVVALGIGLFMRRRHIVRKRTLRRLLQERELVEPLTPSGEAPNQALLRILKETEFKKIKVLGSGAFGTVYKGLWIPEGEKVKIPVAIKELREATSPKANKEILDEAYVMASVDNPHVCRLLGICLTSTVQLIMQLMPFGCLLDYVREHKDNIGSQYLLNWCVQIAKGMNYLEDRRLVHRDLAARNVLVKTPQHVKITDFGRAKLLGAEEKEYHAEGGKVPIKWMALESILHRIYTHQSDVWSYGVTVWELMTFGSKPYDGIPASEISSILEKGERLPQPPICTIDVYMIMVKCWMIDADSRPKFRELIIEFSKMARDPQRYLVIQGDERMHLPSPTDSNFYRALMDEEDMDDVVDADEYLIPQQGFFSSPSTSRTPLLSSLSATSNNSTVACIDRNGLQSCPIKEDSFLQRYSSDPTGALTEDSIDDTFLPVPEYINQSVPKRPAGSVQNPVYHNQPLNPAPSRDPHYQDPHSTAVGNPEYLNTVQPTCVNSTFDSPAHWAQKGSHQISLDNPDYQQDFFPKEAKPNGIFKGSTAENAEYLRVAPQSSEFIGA
Chain of Epidermal growth factor receptor (Homo sapiens, UniProt P00533) (P00533 whole entry): as the sequence (P00533 whole entry, looked up, stated change not applied) above

Consider `CCOC(=O)c1c(-n2ccnc2)nc2ccc(Br)cc2c1N1CCN(c2ccccc2NC(=O)c2cccc(OC)c2OC)CC1`, for which the IC50 in the data set with NCI-H1975 was 6140 nM; in the data set with A549 [1], 8.73 µM; with A549 [2], 11.2 µM; in the data set on HCC827, 520 nM.
With `CCOC(=O)c1c(-n2ccnc2)nc2ccc(Br)cc2c1N1CCN(c2ccccc2NC(=O)c2ccccc2F)CC1`, the half-inhibitory concentration (IC50) in the data set on NCI-H1975 came out at 2810 nM; in the data set with A549 [1], 4.88 µM; in the data set with A549 [2] it was 8.32 µM; in the data set with HCC827 it was 170 nM.
In data set [3], `COc1cc2ncc(C#N)c(Nc3cccc(Br)c3)c2cc1OC` displayed an IC50 of 7.5 nM.
On to `CCOC(=O)c1c(-n2ccnc2)nc2ccc(Br)cc2c1N1CCN(c2ccccc2NS(=O)(=O)C2CC2)CC1`, for which the IC50 turned out to be 7160 nM with NCI-H1975, 7.84 µM with A549 [1], 11.1 µM in the data set with A549 [2] and 670 nM in the data set on HCC827.
In the case of `CCOC(=O)c1c(-n2ccnc2)nc2ccc(Br)cc2c1N1CCN(c2ccccc2NS(=O)(=O)c2ccc(C(F)(F)F)cc2)CC1`, the IC50 stood at 210 nM in the data set with NCI-H1975; 138 nM in data set [4]; 0.99 µM in the data set with A549 [1]; 2.99 µM with A549 [2]; 10 nM in the data set with HCC827. The figures for the Activity in the data set on NSCLC [5] and in the data set with NSCLC [8] were 26.8% and 4.2%, respectively. Besides, in data set [6], the 50% inhibitory concentration (IC50) at 72 h is 85.1 µM. For the same compound, in [7], the inhibition result was “inactive”.
For the compound `CCOC(=O)c1c(-n2ccnc2)nc2ccc(Br)cc2c1N1CCN(c2ccccc2NS(=O)(=O)c2ccc(C(C)(C)C)cc2)CC1`, the half-maximal inhibitory concentration (IC50) in the data set with NCI-H1975 turned out to be 11800 nM; in the data set on A549 [1], 10.8 µM; in the data set with A549 [2] it was 15.1 µM; in the data set with HCC827, 960 nM.
`CCOC(=O)c1c(-n2ccnc2)nc2ccc(Br)cc2c1N1CCN(c2ccccc2NS(=O)(=O)c2ccc(S(C)(=O)=O)cc2)CC1`: the IC50 with NCI-H1975 was determined as 11100 nM; in the data set on A549 [1], 10.3 µM; in the data set on A549 [2], 14.6 µM; with HCC827 it was 890 nM.
On to `CCOC(=O)c1c(-n2ccnc2)nc2ccc(Br)cc2c1N1CCN(c2ccccc2NS(=O)(=O)c2ccc(Cl)cc2)CC1`, for which the IC50 in the data set on NCI-H1975 worked out at 2860 nM; with A549 [1], 5.64 µM; with A549 [2], 8.36 µM; in the data set on HCC827, 220 nM.
Consider `CCOC(=O)c1c(-n2ccnc2)nc2ccc(Br)cc2c1N1CCN(c2ccccc2NC(=O)C2CC(=O)C2)CC1`, for which the IC50 was 110 nM with NCI-H1975, 7.94 µM with A549 [1], 11 µM with A549 [2] and 100 nM in the data set on HCC827.
As for `CCOC(=O)c1c(-n2ccnc2)nc2ccc(Br)cc2c1N1CCN(c2ccccc2[N+](=O)[O-])CC1`, the IC50 in the data set with NCI-H1975 came out at 4430 nM; with A549 [1] it was 6.09 µM; with A549 [2] it was 10.1 µM; with HCC827, 280 nM.
In [3], `N#Cc1c(-c2ccc3ncc(C(N)=O)c(Nc4cccc(Br)c4)c3c2)csc1N` gave an IC50 of 490 nM.
For the compound `CCOC(=O)c1c(-n2ccnc2)nc2ccc(Br)cc2c1N1CCN(c2ccccc2NS(=O)(=O)c2ccc(I)cc2)CC1`, the IC50 in the data set on NCI-H1975 amounted to 2880 nM; with A549 [1], 5.6 µM; in the data set on A549 [2], 9.18 µM; in the data set on HCC827 it was 290 nM.
For `CCCc1cc(C(=O)Nc2ccccc2N2CCN(c3c(C(=O)OCC)c(-n4ccnc4)nc4ccc(Br)cc34)CC2)n(C)n1`, the IC50 was 9360 nM in the data set on NCI-H1975, 8.22 µM in the data set with A549 [1], 11.5 µM in the data set on A549 [2] and 880 nM with HCC827.
`CCOC(=O)c1c(-n2ccnc2)nc2ccc(Br)cc2c1N1CCN(C(=O)OC(C)(C)C)CC1`: the IC50 in the data set with NCI-H1975 came to 16000 nM; in the data set with A549 [1], 12.2 µM; in the data set with A549 [2] it was 14.2 µM; in the data set on HCC827, 2110 nM.
For `CCOC(=O)c1c(-n2ccnc2)nc2ccc(Br)cc2c1N1CCN(c2ccccc2N)CC1` the same measures were 13100 nM, 11.5 µM, 16.8 µM and 970 nM.
On to `CCOC(=O)c1c(-n2ccnc2)nc2ccc(Br)cc2c1N1CCN(c2ccccc2NS(=O)(=O)c2ccc(Br)cc2)CC1`, for which the 50% inhibitory concentration (IC50) in the data set on NCI-H1975 was 2860 nM; with A549 [1] it was 5.02 µM; in the data set on A549 [2], 8.22 µM; with HCC827, 220 nM.
For `CCOC(=O)c1c(-n2ccnc2)nc2ccc(Br)cc2c1N1CCN(c2ccccc2NC(=O)c2cccc(Br)c2)CC1` the same measures were 2820 nM, 4.92 µM, 8.58 µM and 160 nM.
Turning to `CCOC(=O)c1c(-n2ccnc2)nc2ccc(Br)cc2c1N1CCN(c2ccccc2NS(=O)(=O)c2cccc(C#N)c2)CC1`, the IC50 amounted to 4300 nM in the data set on NCI-H1975, 5.99 µM in the data set on A549 [1], 9.22 µM in the data set with A549 [2] and 380 nM with HCC827.
The corresponding values for `CCOC(=O)c1c(-n2ccnc2)nc2ccc(Br)cc2c1N1CCNCC1` are 15200 nM, 11.4 µM, 16.2 µM and 2450 nM.
With `C=CC(=O)Nc1cc(Nc2nccc(-c3cn(C)c4ccccc34)n2)c(OC)cc1N(C)CCN(C)C` [OSIMERTINIB], the IC50 amounted to […] in the data set on NCI-H1975, […] in the data set with A549 [1], 2.67 µM in the data set with A549 [2] and 4 nM with HCC827.
Take `CCOC(=O)c1c(-n2ccnc2)nc2ccc(Br)cc2c1N1CCN(c2ccccc2NS(=O)(=O)c2ccccc2F)CC1`: the IC50 with NCI-H1975 came to 860 nM; in data set [4], 144 nM; in the data set with A549 [1] it was 2.41 µM; in the data set on A549 [2], 4.87 µM; in the data set on HCC827 it was 50 nM. Besides, the inhibition result in data set [7] was “inactive”.
Turning to `CCOC(=O)c1c(-n2ccnc2)nc2ccc(Br)cc2c1N1CCN(c2ccccc2NS(=O)(=O)c2ccc(C#N)cc2)CC1`, the IC50 in the data set with NCI-H1975 was determined as 4120 nM; in the data set on A549 [1], 5.82 µM; with A549 [2], 9.11 µM; in the data set with HCC827, 330 nM.
The corresponding values for `CCOC(=O)c1c(-n2ccnc2)nc2ccc(Br)cc2c1N1CCN(c2ccccc2NC(=O)c2cc(F)ccc2I)CC1` are 2180 nM, 4.3 µM, 6.98 µM and 110 nM.
On to `CCOC(=O)c1c(-n2ccnc2)nc2ccc(Br)cc2c1N1CCN(c2ccccc2NC(=O)c2cc(F)ccc2Br)CC1`, for which the IC50 in the data set with NCI-H1975 was 2690 nM; in the data set with A549 [1] it was 4.82 µM; in the data set with A549 [2], 7.01 µM; in the data set on HCC827 it was 180 nM.
With `CCOC(=O)c1c(-n2ccnc2)nc2ccc(Br)cc2c1N1CCN(c2ccccc2NS(=O)(=O)c2ccc(F)cc2)CC1`, the concentration for half-maximal inhibition (IC50) was determined as 820 nM in the data set on NCI-H1975; 152 nM in data set [4]; 1.88 µM with A549 [1]; 4.22 µM in the data set on A549 [2]; 62 nM with HCC827. In addition, the IC50 at 72 h in data set [6] stood at 86.5 µM.
Regarding `CCOC(=O)c1c(-n2ccnc2)nc2ccc(Br)cc2c1N1CCN(c2ccccc2NS(=O)(=O)c2ccc(OC)cc2)CC1`, the IC50 with NCI-H1975 stood at 4800 nM; with A549 [1], 6.11 µM; in the data set with A549 [2], 10.2 µM; with HCC827, 380 nM.
Consider `CCOC(=O)c1c(-n2ccnc2)nc2ccc(Br)cc2c1N1CCN(c2ccccc2NS(=O)(=O)c2ccc(F)c(F)c2)CC1`, for which the concentration for half-maximal inhibition (IC50) in the data set on NCI-H1975 worked out at 770 nM; in data set [4], 159 nM; in the data set with A549 [1], 1.09 µM; in the data set on A549 [2], 3.09 µM; in the data set on HCC827, 99 nM. Moreover, in [6], the IC50 at 72 h is 45.8 µM.
